This assay relates to IgE of peanut allergic patients. Nature of the assay: Immunodot assay with sera of peanut allergic patients. Type of assay: binding, human. As to conditions: peptide-pIII fusion proteins spotted on nitrocellulose, patient sera diluted 1:10, FIG. 3. On the procedure:
Three selected IgE epitope-like peptides (ELP 2, ELP 5, ELP 6) were extracted as recombinant fusions with bacteriophage minor coat protein pIII from the periplasm of host bacteria with osmotic shock. Two target-unrelated control peptides also fused to protein pIII (binders to streptavidin and human leptin) were extracted in the same way and served as negative controls (C1, C2). Briefly, E. coli host bacteria were infected with individual phage clones and grown for 2 hours at 37° C. with agitation. Bacteria pellets were spun down at 5000×g for 10 min and resuspended in 1 ml of an ice-cold solution consisting of 20% sucrose, 200 mM Tris-HCl pH 8.0 and 1 mM EDTA supplemented with protease inhibitor cocktail (EZBlock™, BioVision, San Francisco, USA) at a dilution of 1:200. After 1 h incubation on ice with occasional stirring supernatants were harvested by centrifugation at 12000×g for 20 minutes at 4° C. Resulting periplasmic extracts containing […] fusion proteins were concentrated (4-5 fold) and sucrose buffer exchanged for PBS by ultrafiltration with 10 kDa cut-off membrane (Microsep Advance Centrifugal Device, Pall Corporation, New York, USA). For immunoprecipitation of each selected peptide, 20 μg of affinity purified rabbit IgG against Ara h 2 (INDOOR Biotechnologies, Charlottesville, Virginia, USA) were covalently coupled to 1 mg of Dynabeads M-280 Tosylactivated™ (Thermo Fisher Scientific) according to manufacturer's protocol. Control peptides were immunoprecipitated in the same way using 10 μg of anti-human leptin antibody (R and D Systems Cat #MAB398 RRID:AB_2136056) coupled to 1 mg of Dynabeads M-280 Tosylactivated™ in the case of peptide with the affinity toward human leptin and 0.5 mg of streptavidin-coupled beads (Dynabeads™ MyOne™ Streptavidin T1, Thermofisher Scientific) in the case of peptide with the affinity towards streptavidin. […]
Consider “DHPRFST (IgE epitope-like peptide) [ELP 6]”, for which the “binding to IgE of peanut allergic patients” value (from here on “binding to IgE”) was “bind to patients' IgE”.
As to “DHPRFNRDNDVA (IgE epitope-like peptide) [ELP 2]”, the “binding to IgE” value was “bind to patients' IgE”.
As for “DHPRYGP (IgE epitope-like peptide) [ELP 5]”, the “binding to IgE” value was “bind to patients' IgE”.

These data come from patent US12415839B2, “IgE epitope-like peptides and uses thereof” (Univerza v Ljubljani, priority 2018, dated 2025).
